In publication PMC8571282 (Nature Communications, 2021):

Assay: in vivo
Settings: iv, 20 mg/kg

`N#C[C@@]1(c2ccc3c(N)ncnn23)O[C@H](CO)[C@@H](O)[C@H]1O` [GS-441524] showed an AUC(0-t) of 81.1 µM·h, a Cmax of 54.2 µM and a clearance of 14.3 mL/min/kg. It also gave a half-life of 3.4 h.
